{"source": "patent US6572877B2", "about": "“Worm food composition” (Legend Laboratories Corporation, priority 2001, dated 2003)", "system": "Lumbricus terrestris", "experiment": "Feeding experiment with Lumbricus terrestris (Canadian night crawler), cartons of one dozen worms plus bedding", "type": "in vivo", "settings": "Carton 1", "description": "The first experiment was conducted with Lumbricus terrestris. Lumbricus terrestris typically measures from 90-300 mm by 6-10 mm having a dark anterior and a pale flattened posterior. These worms live in an anecic habit meaning that they build permanent, vertical burrows that extend typically 2.5 m into the soil. Such worms feed in decaying organic material and grow and breed very slowly compared to other worms. This worm must have the burrow to return to and simply won't perform well in a worm bin. In their natural habitat such worms can live up to six years.\nIn the experiment, five cartons containing one dozen worms plus bedding each were kept in the refrigerator at 36° F. to 40° F. prior to the beginning the experiment. After refrigeration the following compounds were added to the specified cartons. Carton 1 was treated with a stock solution of 5 ml xanthene acid yellow 73 from a stock solution of 0.5 g xanthene acid yellow 73 in 500 ml distilled water. Carton 2 was treated with 5 grams of a stock mixture having 40 grams corn meal and 1 gram xanthene acid yellow 73. This mixture was simply added to Carton 2 and was not agitated. Carton 3 was treated with 5 grams of the same stock mixture and shaken gently to evenly disperse the mixture in Container 3. Carton 4 was treated with 5 grams from a mixture of 40 grams corn meal and 2 grams xanthene acid yellow 73 and was not agitated. […]"}
{"smiles": "O=C([O-])c1ccccc1-c1c2ccc(=O)cc-2oc2cc([O-])ccc12.[Na+].[Na+]", "note": "[xanthene acid yellow 73]", "values": [{"measurement": "color of the worm", "setting": "5 ml of stock solution 0.5 g in 500 ml distilled water, after 7 days", "result": "no change in the color of the worm"}, {"measurement": "condition of the worms", "setting": "5 ml of stock solution, after six weeks", "result": "weak and dying from lack of nutrition"}]}
